Reference: patent US10030016B2 (Sunesis Pharmaceuticals, Inc., priority 2009, dated 2018)
Where a name gives a salt, the structure may show the parent alone. Read-outs that look alike come from different tables or passages of the source.

Columns and labels:
PDK1 = PDK1 (Homo sapiens (Human), UniProt O15530); assay: PDK1 kinase assay (coupled PDK1/AKT/FAM-crosstide assay, IMAP fluorescence polarization); type: biochemical
Summary of the method: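 PDK1 activity is measured indirectly through activation of a PIFtide-fused AKT2 construct that phosphorylates FAM-crosstide (100 nM). The reaction uses 0.75 nM PDK1, 40 μM ATP, 30 min, 25° C, with IMAP polarization detection.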

[1] = system: phospho-akt (Thr308) in PC-3 cells; assay: Inhibition of phospho-akt (Thr308) in PC-3 cells, MSD phospho-akt 308 ELISA kit; type: cell-based; details: Homo sapiens, 2 hours, no serum, read-out: EC50
Summary of the method: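 Electrochemiluminescent MSD ELISA of Thr308-phosphorylated Akt after a 2 h serum-free compound exposure of PC-3 cells (15,000/well, plated overnight). Controls: DMSO (high), 5 μM wortmannin (low). Lysate binding overnight at 4 °C; detection antibody 1 h at room temperature.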

[2] = inhibition of P308 Akt in PC-3 cells using MSD
[3] = inhibition of phospo-PDK1 in vitro
[4] = inhibition of P308 Akt in PC-3 cells, MSD

PDK1, sequence (O15530 51-359): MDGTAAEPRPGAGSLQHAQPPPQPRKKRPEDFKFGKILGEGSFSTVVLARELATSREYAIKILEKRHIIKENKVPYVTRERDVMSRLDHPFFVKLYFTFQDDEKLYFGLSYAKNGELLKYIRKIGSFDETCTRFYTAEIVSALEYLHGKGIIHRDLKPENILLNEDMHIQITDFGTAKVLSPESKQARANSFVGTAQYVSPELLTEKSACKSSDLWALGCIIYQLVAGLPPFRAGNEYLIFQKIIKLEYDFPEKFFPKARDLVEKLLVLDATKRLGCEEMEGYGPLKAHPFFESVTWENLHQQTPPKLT

| IC50 (PDK1; inhibition of PDK1 in vitro) [nM] | EC50 [1, 2] [nM] | IC50 (PDK1; [3]) [nM] | EC50 [1, 4] [nM] | Structure (SMILES) |
| --- | --- | --- | --- | --- |
| < 100 | 1000 to 10000 |  |  | C[C@H](NC(=O)c1cc(C#N)cnc1NCc1ccc(-c2cnc(N)c(C(=O)N(C)C)n2)cc1)c1ccc(F)cc1 [Example 210, (S)-3-amino-6-(4-((5-cyano-3-(1-(4-fluorophenyl)ethylcarbamoyl)pyridin-2-ylamino)methyl)phenyl)-N,N-dimethylpyrazine-2-carboxamide] |
|  |  | > 5000 | > 10000 | O=C(c1cccnc1NCc1cccc(-c2c[nH]c3ncccc23)c1)N1CCCCC1 [Example 1.13, Piperidin-1-yl(2-{[3-(1H-pyrrolo [2,3-b]pyridin-3-yl)benzyl]amino}pyridin-3-yl)methanone] |
| < 100 | < 1000 |  |  | CN(Cc1ccc(F)c(F)c1)C(=O)c1nc(C#N)cnc1NCc1ccc(-c2cnc3[nH]nc(N)c3c2)cc1 [Example 413, 3-(4-(3-amino-1H-pyrazolo[3,4-b]pyridin-5-yl)benzylamino)-6-cyano-N-(3,4-difluorobenzyl)-N-methylpyrazine-2-carboxamide] |
| < 100 | 1000 to 10000 |  |  | C[C@H](NC(=O)c1cc(C#N)cnc1NCc1ccc(-c2cnc(Nc3ccn(C)n3)nc2)cc1)c1ccc(F)cc1 [Example 125, (S)-5-cyano-N-(1-(4-fluorophenyl)ethyl)-2-(4-(2-(1-methyl-1H-pyrazol-3-ylamino)pyrimidin-5-yl)benzylamino) nicotinamide] |
| < 100 | 1000 to 10000 |  |  | Cn1nc(-c2ccc(CNc3ncc(C(F)(F)F)cc3C(=O)NCc3ccc(F)c(F)c3)cc2)c2c(N)ncnc21 [Example 332, 2-(4-(4-amino-1-methyl-1H-pyrazolo[3,4-d]pyrimidin-3-yl)-benzylamino)-N-(3,4-difluorobenzyl)-5-(trifluoromethyl)nicotinamide] |
|  |  | 100 to 1000 | > 10000 | Nc1ncnc2ccc(-n3cc(CNc4ncccc4C(=O)NCc4ccc(F)c(F)c4)nn3)cc12 [Ex. 9.1, 2-((1-(4-aminoquinazolin-6-yl)-1H-1,2,3-triazol-4-yl)methylamino)-N-(3,4-difluorobenzyl)nicotinamide] |
|  |  | < 100 | < 1000 | O=C(NCc1ccc(F)c(F)c1)c1cccnc1NCc1csc(-c2c[nH]c3ncccc23)n1 [Ex. 6.12, N-(3,4-difluorobenzyl)-2-({[2-(1H-pyrrolo[2,3-b]pyridin-3-yl)-1,3-thiazol-4-yl]-methyl}amino) pyridine-3-carboxamide] |
| < 100 | < 1000 |  |  | CNC(=O)c1cc(-c2ccc(CNc3ncc(C#N)cc3C(=O)N[C@@H](C)c3ccc(F)cc3)cc2)cnc1N [Example 203, (S)-2-amino-5-(4-((5-cyano-3-(1-(4-fluorophenyl)ethylcarbamoyl)pyridin-2-ylamino)methyl)phenyl)-N-methylnicotinamide] |
| < 100 | < 1000 |  |  | Nc1n[nH]c2ncc(-c3ccc(CNc4ncc(C(F)(F)F)cc4C(=O)NC4CCCCC4)cc3)cc12 [Example 297, 2-(4-(3-amino-1H-pyrazolo [3,4-b]pyridin-5-yl)benzylamino)-N-cyclohexyl-5-(trifluoromethyl)nicotinamide] |
| < 100 | < 1000 |  |  | N#Cc1cnc(NCc2ccc(-c3c[nH]c4ncnc(N)c34)cc2)c(C(=O)Nc2ccc(F)cc2)n1 [Example 320, 3-(4-(4-amino-7H-pyrrolo[2,3-d]pyrimidin-5-yl)benzylamino)-6-cyano-N-(4-fluorophenyl) pyrazine-2-carboxamide] |
| < 100 | 1000 to 10000 |  |  | C[C@H](NC(=O)c1cccnc1NCc1ccc(-c2ccc(N)nc2)cc1)c1ccc(F)c(F)c1 [Example 369, (S)-2-(4-(6-aminopyridin-3-yl)benzylamino)-N-(1-(3,4-difluorophenyl)ethyl) nicotinamide] |
| < 100 | 1000 to 10000 |  |  | C[C@H](NC(=O)c1nc(C#N)cnc1NCc1ccc(-c2cnc(N)c(C(=O)N3CCNCC3)n2)cc1)c1ccc(F)c(F)c1 [Example 219, 3-{4-[5-Amino-6-(piperazine-1-carbonyl)-pyrazin-2-yl]-benzylamino}-6-cyano-pyrazine-2-carboxylic acid [(S)-1-(3,4-difluoro-phenyl)-ethyl]-amide] |
| < 100 | < 1000 |  |  | CC(N)CCc1nc(-c2ccc(CNc3ncc(C#N)cc3C(=O)N[C@@H](C)c3ccc(F)cc3)cc2)cnc1N (stereo partly drawn) [Example 85, 2-{4-[5-Amino-6-(3-amino-butyl)-pyrazin-2-yl]-benzylamino}-5-cyano-N-[(S)-1-(4-fluoro-phenyl)-ethyl]-nicotinamide] |
| < 100 | 1000 to 10000 |  |  | C[C@H](NC(=O)c1cc(C#N)cnc1NCc1ccc(-c2cnc(N)c(C(=O)NCCN3CCOCC3)c2)cc1)c1ccc(F)cc1 [Example 202, (S)-2-amino-5-(4-((5-cyano-3-(1-(4-fluorophenyl)ethylcarbamoyl)pyridin-2-ylamino)methyl)phenyl)-N-(2-morpholinoethyl) nicotinamide] |
|  |  | 100 to 1000 | > 10000 | Nc1ncnc2ccc(-c3ccc(CNc4ncc(NC(=O)c5ccccc5)cc4C(=O)NCc4ccc(F)c(F)c4)s3)cc12 [Example 8.5.7, 2-({[5-(4-aminoquinazolin-6-yl)thiophen-2-yl]methyl}amino)-N-(3,4-difluorobenzyl)-5-[(phenylcarbonyl)amino] pyridine-3-carboxamide] |
| < 100 | < 1000 |  |  | C[C@H](NC(=O)c1nc(C#N)cnc1NCc1ccc(-c2cnc(N)c(OCCN)n2)cc1)c1ccc(F)c(F)c1 [Example 167, 3-{4-[5-Amino-6-(2-amino-ethoxy)-pyrazin-2-yl]-benzylamino}-6-cyano-pyrazine-2-carboxylic acid [(S)-1-(3,4-difluoro-phenyl)-ethyl]-amide] |
|  |  | < 100 | 1000 to 10000 | Nc1ncnc2ccc(-c3ccc(CNc4nc(Cl)cc5ncn(Cc6ccc(F)c(F)c6)c(=O)c45)s3)cc12 [Ex. 7.17, 5-({[5-(4-aminoquinazolin-6-yl)thiophen-2-yl]methyl}amino)-7-chloro-N-3-(3,4-difluorobenzyl)pyrido [4,3-d]pyrimidin-4(3H)-one] |
|  |  | > 5000 | > 10000 | C[C@H](NC(=O)c1cccnc1NCc1ccc(-c2ccc3ncc(-n4cccn4)nc3c2)s1)c1ccc(F)c(F)c1 [Example 4.26, (S)-2-(((5-(3-(1H-pyrazol-1-yl)quinoxalin-6-yl)thiophen-2-yl)methyl)amino)-N-(1-(3,4-difluorophenyl)ethyl)nicotinamide] |
| < 100 | < 1000 |  |  | C[C@H](NC(=O)c1nc(C#N)cnc1NCc1ccc(-c2cnc(N)c(NCCN)n2)cc1)c1ccc(F)c(F)c1 [Example 195, 3-{4-[5-Amino-6-(2-amino-ethylamino)-pyrazin-2-yl]-benzylamino}-6-cyano-pyrazine-2-carboxylic acid [(S)-1-(3,4-difluoro-phenyl)-ethyl]-amide] |
|  |  | < 100 | 1000 to 10000 | Nc1cnc(NCc2ccc(-c3ccc4ncnc(N)c4c3)s2)c(C(=O)NCc2ccc(F)c(F)c2)c1 [Ex. 8.4, 2-({[5-(4-aminoquinazolin-6-yl)thiophen-2-yl]methyl}amino)-N-(3,4-difluorobenzyl)-5-aminopyridine-3-carboxamide] |
| 100 to 1000 | 1000 to 10000 |  |  | C[C@H](NC(=O)c1cc(C#N)cnc1NCc1ccc(-c2ccc(NCCO)nc2)cc1)c1ccc(F)cc1 [Example 222, 5-Cyano-N-[(S)-1-(4-fluoro-phenyl)-ethyl]-2-{4-[6-(2-hydroxy-ethylamino)-pyridin-3-yl]-benzylamino}-nicotinamide] |
|  |  | < 100 | < 1000 | Nc1n[nH]c2ncc(-c3ccc(CNc4ncc(C(F)(F)F)nc4C(=O)Nc4ccc(F)cc4)cc3)cc12 [Example 39, 3-(4-(3-amino-1H-pyrazolo[3,4-b]pyridin-5-yl)benzylamino)-N-(4-fluorophenyl)-6-(trifluoromethyl)pyrazine-2-carboxamide] |
|  |  | < 100 | 1000 to 10000 | O=C1Nc2cc(/C=C/CNc3ncccc3C(=O)NCc3ccc(F)c(F)c3)ccc2/C1=C/c1ncc[nH]1 [Example 15.12, N-(3,4-Difluoro-benzyl)-2-((E)-3-{3-[1-(1H-imidazol-2-yl)-meth-(Z)-ylidene]-2-oxo-2,3-dihydro-1H-indol-6-yl}-allylamino)-nicotinamide] |
|  |  | 100 to 1000 | < 1000 | C[C@H](NC(=O)c1cc(S(C)(=O)=O)cnc1NCc1ccc(-c2ccc3ncnc(N)c3c2)s1)c1ccc(F)c(F)c1 |
| < 100 | < 1000 |  |  | Nc1n[nH]c2ncc(-c3ccc(CNc4ncc(C(F)(F)F)cc4C(=O)Nc4ccc(F)nc4)cc3)cc12 [Example 267, 2-(4-(3-amino-1H-pyrazolo [3,4-b]pyridin-5-yl)benzylamino)-N-(6-fluoropyridin-3-yl)-5-(trifluoromethyl) nicotinamide] |
| < 100 | < 1000 |  |  | N#CCc1n[nH]c2ncc(-c3ccc(CNc4ncc(C(F)(F)F)cc4C(=O)Nc4ccc(F)cc4)cc3)cc12 [Example 157, 2-(4-(3-(cyanomethyl)-1H-pyrazolo[3,4-b]pyridin-5-yl)benzylamino)-N-(4-fluorophenyl)-5-(trifluoro-methyl)nicotinamide] |
|  |  | 100 to 1000 | 1000 to 10000 | C[C@H](NC(=O)c1cccnc1NCc1ccc(-c2ccc3ncnc(N)c3c2)s1)c1cccnc1 [Example 3.60, (S)-2-(((5-(4-aminoquinazolin-6-yl)thiophen-2-yl)methyl)amino)-N-(1-(pyridin-3-yl)ethyl) nicotinamide (TFA salt)] |
